Experimental data: ChEMBL document CHEMBL1201862, “PubChem BioAssay data set” (2004)
Active and inactive are the calls of the source.

Key:
[1] = molecular target: T1, Oxysterols receptor LXR-beta (Homo sapiens, UniProt P55055); type: functional, cell-based
T1 sequence (P55055 whole entry): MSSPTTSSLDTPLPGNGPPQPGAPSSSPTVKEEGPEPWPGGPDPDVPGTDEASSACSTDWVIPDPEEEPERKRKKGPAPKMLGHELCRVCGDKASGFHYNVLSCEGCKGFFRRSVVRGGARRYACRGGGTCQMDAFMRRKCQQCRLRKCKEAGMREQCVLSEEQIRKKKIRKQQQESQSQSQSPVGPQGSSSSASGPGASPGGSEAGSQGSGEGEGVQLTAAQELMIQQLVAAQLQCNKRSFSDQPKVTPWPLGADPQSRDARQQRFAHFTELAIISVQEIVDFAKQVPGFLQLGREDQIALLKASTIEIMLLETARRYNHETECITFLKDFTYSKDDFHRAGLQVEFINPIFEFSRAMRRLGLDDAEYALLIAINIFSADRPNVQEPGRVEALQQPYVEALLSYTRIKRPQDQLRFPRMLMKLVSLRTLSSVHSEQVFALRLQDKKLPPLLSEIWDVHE

[2] = molecular target: T2, Ubiquitin carboxyl-terminal hydrolase BAP1 (Homo sapiens, UniProt Q92560); test: inhibition of BAP1 ubiquitin hydrolase activity – biochemical, dose response (AID 714); type: functional
T2 sequence (Q92560 whole entry): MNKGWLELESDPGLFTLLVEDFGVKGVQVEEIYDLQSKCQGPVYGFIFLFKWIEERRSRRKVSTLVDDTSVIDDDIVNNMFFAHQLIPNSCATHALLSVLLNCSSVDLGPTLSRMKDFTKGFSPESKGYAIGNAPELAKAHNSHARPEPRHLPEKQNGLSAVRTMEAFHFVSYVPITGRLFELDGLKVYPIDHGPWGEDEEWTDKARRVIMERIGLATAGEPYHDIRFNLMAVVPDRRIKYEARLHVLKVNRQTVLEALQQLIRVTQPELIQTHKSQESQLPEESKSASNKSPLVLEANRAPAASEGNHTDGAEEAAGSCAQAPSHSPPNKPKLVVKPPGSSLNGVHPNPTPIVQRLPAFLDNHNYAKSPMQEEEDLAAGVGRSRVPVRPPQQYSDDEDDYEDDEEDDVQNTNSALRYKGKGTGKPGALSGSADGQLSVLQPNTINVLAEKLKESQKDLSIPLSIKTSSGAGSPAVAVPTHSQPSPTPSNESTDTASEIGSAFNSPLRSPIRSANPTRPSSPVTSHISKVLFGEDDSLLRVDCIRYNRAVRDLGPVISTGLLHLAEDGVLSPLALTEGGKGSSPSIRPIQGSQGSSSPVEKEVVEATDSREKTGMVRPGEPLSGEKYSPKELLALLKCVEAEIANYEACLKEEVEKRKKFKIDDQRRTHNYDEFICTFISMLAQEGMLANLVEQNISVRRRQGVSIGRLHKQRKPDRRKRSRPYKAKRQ

[3] = blockers of HIV-1 envelope-mediated cell-cell fusion – cherry-pick, dose response (AID 652057); type: functional, cell-based
[4] = blockers of HIV-1 ZM109 envelope-driven cell-cell fusion – HeLa effector, CEM target cells, luciferase, cherry-pick, dose response (AID 652058); type: functional, cell-based;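 also: luciferase signal from HIV-1 Env mediated cell-cell fusion of effector and target cells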
[5] = molecular target: T3, Heat shock factor protein 1 (Mus musculus, UniProt P38532); test: decrease of HSF1-responsive luciferase luminescence – cell-based, NIH3T3, dose retest, confirmation (AID 2382); type: functional;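 also: NIH3T3 fibroblasts with HSF1-driven luciferase reporter stressed by proteasome inhibitor MG132; luminescence from HSF1-driven luciferase expression after 8 hours of MG132 stress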
T3 sequence (P38532 whole entry): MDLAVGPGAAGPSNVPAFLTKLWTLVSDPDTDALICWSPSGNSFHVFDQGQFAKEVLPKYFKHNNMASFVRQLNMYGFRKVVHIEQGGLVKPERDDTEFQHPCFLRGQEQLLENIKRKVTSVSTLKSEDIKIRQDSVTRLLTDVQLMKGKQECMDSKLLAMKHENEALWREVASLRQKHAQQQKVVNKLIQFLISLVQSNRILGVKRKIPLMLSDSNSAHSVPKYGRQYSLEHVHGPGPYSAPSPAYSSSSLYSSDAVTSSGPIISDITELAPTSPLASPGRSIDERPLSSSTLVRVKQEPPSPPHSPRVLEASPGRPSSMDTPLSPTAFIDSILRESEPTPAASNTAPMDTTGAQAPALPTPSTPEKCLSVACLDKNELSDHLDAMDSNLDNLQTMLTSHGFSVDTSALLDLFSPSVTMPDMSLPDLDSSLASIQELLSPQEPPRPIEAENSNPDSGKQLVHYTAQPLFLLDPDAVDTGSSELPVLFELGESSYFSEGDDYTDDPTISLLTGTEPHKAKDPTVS

[6] = HIV-1 AD8 envelope cell-cell fusion blockers – cherry-pick, dose response (AID 652062); type: functional, cell-based;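 also: luciferase signal from cell-cell fusion driven by HIV-1 clade B AD8 Env; potency is for inhibitors of fusion seen as a drop in luminescence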
[7] = off-target signal loss in HeLa-CEM21 co-culture – HeLa F-luc CTL cells, cherry-picked, counter-screen for HIV-1 Env fusion inhibitor project, dose response (AID 652040); type: functional, cell-based;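 also: potency for signal decrease marking cytotoxic or nonspecific inhibition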
[8] = molecular target: T4, Tyrosine-protein phosphatase non-receptor type 7 (Homo sapiens, UniProt P35236); test: HePTP tyrosine phosphatase activity blockers – biochemical, absorbance, leukemia target, primary screen (AID 521); type: functional
T4 sequence (P35236 whole entry): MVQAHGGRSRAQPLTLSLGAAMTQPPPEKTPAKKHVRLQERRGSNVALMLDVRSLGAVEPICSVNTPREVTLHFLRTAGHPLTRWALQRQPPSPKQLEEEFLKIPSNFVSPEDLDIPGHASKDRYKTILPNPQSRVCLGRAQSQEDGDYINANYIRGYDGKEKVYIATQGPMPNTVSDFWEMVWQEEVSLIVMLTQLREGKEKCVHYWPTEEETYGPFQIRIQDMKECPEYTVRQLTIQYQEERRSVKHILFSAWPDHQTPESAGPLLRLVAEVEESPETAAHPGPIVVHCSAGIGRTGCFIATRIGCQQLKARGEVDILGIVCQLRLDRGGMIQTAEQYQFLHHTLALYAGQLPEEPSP

Estrogen receptor beta [9] = molecular target: T5, Estrogen receptor beta (Homo sapiens, UniProt Q92731); test: blockers of SRC-3 recruitment to ERβ – biochemical, ELISA, streptavidin-HRP readout, orthogonal assay, confirmation (AID 1060)
Estrogen receptor beta [10] = molecular target: T5, Estrogen receptor beta
[11] = molecular target: T6, Carboxy-terminal domain RNA polymerase II polypeptide A small phosphatase 1 (Homo sapiens, UniProt Q9GZU7); test: CTDSP1 inhibitors, concentration-response, biochemical, absorbance readout, ultra-high-throughput screen actives (AID 540297); type: functional
T6 sequence (Q9GZU7 whole entry): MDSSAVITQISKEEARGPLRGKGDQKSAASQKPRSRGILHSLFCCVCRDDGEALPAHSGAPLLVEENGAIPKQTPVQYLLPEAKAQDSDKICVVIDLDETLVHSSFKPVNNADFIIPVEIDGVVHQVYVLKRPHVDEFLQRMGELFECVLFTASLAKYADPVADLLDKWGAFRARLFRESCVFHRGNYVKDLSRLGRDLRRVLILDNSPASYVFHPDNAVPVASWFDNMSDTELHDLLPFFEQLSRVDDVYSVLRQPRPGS

Streptococcus = test: GAS UMAA2166 growth inhibition – luminescence, BacTiterGlo, counter-screen for streptokinase expression inhibitor project, dose response (AID 1915); type: functional, organism-based;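 also: potency for reduction of bacterial viability or growth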
[12] = molecular target: Induced myeloid leukemia cell differentiation protein Mcl-1 (Homo sapiens, UniProt Q07820); type: functional
Streptokinase A = molecular target: T7, Streptokinase A (Streptococcus pyogenes serotype M1, UniProt P10520); test: viability-normalized secreted streptokinase activity reduction – plasminogen activation absorbance, OD405, dose response (AID 1914); type: functional, Streptococcus pyogenes M1 GAS;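 also: secreted streptokinase activity via plasminogen activation per viability signal from cell pellet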
T7 sequence (P10520 whole entry): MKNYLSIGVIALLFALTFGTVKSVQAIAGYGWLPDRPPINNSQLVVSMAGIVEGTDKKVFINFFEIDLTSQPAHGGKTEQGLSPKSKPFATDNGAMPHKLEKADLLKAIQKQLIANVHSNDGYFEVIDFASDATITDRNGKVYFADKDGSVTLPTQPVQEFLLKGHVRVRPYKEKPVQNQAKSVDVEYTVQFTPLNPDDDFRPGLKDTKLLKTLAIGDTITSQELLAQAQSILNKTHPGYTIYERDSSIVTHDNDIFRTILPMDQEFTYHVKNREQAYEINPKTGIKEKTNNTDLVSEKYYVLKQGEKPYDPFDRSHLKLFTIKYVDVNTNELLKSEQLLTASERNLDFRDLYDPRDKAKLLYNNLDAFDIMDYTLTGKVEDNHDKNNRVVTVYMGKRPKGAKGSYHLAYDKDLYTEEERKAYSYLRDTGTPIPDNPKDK

[13] = system: Streptococcus sp. 'group A'; test: Streptococcus pyogenes SK(-)GAS viability under kanamycin – luminescence, BacTiterGlo, confirmation, counter-screen for streptokinase expression inhibitor project, dose response (AID 1900); type: functional, organism-based
Prothrombin = Prothrombin (Homo sapiens, UniProt P00734); test: Thrombin 1536 HTS Dose Response Confirmation. [Related pubchem assays: 1046 (Thrombin 1536 HTS; hits were confirmed in this assay)]; type: functional
[14] = molecular target: T1, Oxysterols receptor LXR-beta; type: functional, cell-based; remark: listed apart in the source
[15] = molecular target: G-protein coupled receptor 55 (Homo sapiens, UniProt Q9Y2T6); test: selective activators of receptor GPR55 – imaging, U2OS cells, beta-arrestin-GFP redistribution, primary screen (AID 1961); type: functional
Paired box protein Pax-8 = Paired box protein Pax-8 (Homo sapiens, UniProt Q06710); test: PAX8 transcriptional activity inhibition in RMG-I – RMG-I cells, luciferase, cherry-pick, dose response (AID 687027); type: functional, cell-based;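 also: luciferase reporter driven by Pax8 target thyroperoxidase promoter measured by SteadyGlo luminescence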
[16] = OVCAR-3 cell viability loss – plate reader, dry powder samples, PAX8 inhibitor project, dose response (AID 743044); type: functional, cell-based
[17] = general cell-killing toxicity readout – plate reader, dry powder samples, cytotoxicity control for PAX8 inhibitor project, dose response (AID 743021); type: functional, cell-based
[18] = OVCAR8 cell viability loss – plate reader, dry powder samples, PAX8 project, dose response (AID 743197); type: functional, cell-based; details: OVCAR-8
[19] = Luminescence Cell-Based Dose Response HTS to Identify Inhibitors of 5'UTR Stem-Loop Driven Prion Protein mRNA Translation in H4 Neuroglioblastoma Cells. [Related pubchem assays: 1827 (Project Summary), 1813 (Primary HTS)]; type: functional
[20] = alpha-synuclein stem-loop luciferase translation blockers – H4 neuroglioma cells, luminescence, confirmation (AID 1988); type: functional, cell-based
[21] = luciferase reporter signal suppression in cells – H4 neuroglioma cells, luminescence, dose response (AID 1990); type: functional, cell-based
[22] = HEK-293T viability loss after treatment – luminescence, T-cell screen hits, cytotoxicity control for TCR NF-kB inhibitor project, dose response (AID 489026); type: functional, cell-based;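 also: cells exposed to compound about 14 hours before the viability readout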

T5 sequence (Q92731 whole entry): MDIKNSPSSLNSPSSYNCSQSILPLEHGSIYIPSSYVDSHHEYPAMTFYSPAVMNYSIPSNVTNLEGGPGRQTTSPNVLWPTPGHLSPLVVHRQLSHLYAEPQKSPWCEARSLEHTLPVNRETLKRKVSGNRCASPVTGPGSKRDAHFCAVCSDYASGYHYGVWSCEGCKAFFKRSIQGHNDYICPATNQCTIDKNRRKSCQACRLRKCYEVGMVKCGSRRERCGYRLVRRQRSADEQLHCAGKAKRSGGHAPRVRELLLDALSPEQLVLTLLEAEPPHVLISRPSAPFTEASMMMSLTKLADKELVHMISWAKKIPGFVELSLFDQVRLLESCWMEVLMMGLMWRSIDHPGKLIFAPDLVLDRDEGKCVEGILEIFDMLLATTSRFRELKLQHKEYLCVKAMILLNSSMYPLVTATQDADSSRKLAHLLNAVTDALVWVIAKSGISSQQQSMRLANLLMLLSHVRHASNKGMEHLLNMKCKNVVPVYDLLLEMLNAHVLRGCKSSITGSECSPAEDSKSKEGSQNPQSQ
Chain of Paired box protein Pax-8 (Q06710 whole entry): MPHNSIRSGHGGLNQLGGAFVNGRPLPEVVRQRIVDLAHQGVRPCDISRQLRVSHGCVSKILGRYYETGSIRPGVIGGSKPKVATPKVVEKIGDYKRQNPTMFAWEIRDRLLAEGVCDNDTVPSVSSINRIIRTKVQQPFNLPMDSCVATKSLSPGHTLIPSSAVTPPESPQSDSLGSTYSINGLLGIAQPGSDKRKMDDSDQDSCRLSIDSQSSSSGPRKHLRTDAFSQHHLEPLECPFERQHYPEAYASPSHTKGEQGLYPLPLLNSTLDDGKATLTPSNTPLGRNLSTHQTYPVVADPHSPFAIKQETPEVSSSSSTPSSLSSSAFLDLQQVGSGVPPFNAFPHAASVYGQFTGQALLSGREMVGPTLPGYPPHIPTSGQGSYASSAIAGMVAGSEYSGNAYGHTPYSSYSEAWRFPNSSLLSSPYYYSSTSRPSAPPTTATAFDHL
Chain of Induced myeloid leukemia cell differentiation protein Mcl-1 (Q07820 whole entry): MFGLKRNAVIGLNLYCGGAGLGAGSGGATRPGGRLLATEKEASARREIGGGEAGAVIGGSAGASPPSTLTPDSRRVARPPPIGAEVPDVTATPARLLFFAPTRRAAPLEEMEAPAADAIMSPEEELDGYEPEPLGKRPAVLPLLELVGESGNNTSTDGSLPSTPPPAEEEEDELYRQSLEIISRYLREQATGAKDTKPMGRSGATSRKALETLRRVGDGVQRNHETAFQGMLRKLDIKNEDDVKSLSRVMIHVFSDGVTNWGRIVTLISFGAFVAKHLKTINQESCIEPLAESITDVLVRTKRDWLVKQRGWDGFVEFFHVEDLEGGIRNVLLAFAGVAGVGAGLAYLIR
Chain of G-protein coupled receptor 55 (Q9Y2T6 whole entry): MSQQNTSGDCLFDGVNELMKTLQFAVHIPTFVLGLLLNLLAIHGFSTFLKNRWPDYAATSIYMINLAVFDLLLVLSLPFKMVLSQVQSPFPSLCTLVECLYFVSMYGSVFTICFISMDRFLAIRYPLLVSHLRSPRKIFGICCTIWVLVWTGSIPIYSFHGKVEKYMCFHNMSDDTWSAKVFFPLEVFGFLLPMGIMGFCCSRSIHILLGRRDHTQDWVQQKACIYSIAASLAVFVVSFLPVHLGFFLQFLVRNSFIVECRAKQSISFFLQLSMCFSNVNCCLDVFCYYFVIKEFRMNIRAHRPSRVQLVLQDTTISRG

## Nc1cccc2c1C(=O)N(CCOc1ccccc1F)C2=O
[1]
  EC50: > 67.6 µM (inactive)
cells
  EC50: > 67.6 µM (inactive)

## CCOC(=O)c1c(NC(=O)c2cccs2)sc(C)c1CC
[2]
  IC50: 30.4 µM (not active)

## c1ccc2c(c1)OCC(c1csc3ncnc(N4CCOCC4)c13)O2 (stereo unspecified)
[3]
  AC50: 4.1 µM (active)
[4]
  AC50: 11.6 µM (active)
[5]
  EC50: 171 µM (active)
[6]
  AC50: 4.95 µM (active)
[7]
  AC50: 21.4 µM (active)
[8]
  IC50: > 100 µM (not active)

## O=C1c2ccccc2-c2onc3c(Oc4ccccc4)cc(O)c1c23
Estrogen receptor beta [9]
  IC50: 37 µM (not active)

## COc1ccc2c(=O)c3c(=O)n(Cc4ccco4)c(-c4ccco4)nc3oc2c1
Estrogen receptor beta [10]
  IC50: > 50 µM (not active)
[11]
  IC50: 4.9 µM (active)

## COC(=O)c1c(NC(=O)Cc2cccs2)sc2c1CCCC2
Streptococcus
  EC50: > 150 µM (not active)
[12]
  IC50: 3.35 µM (active)
Streptokinase A
  EC50: 17.7 µM (active)
Estrogen receptor beta [10]
  IC50: 4.51 µM (active)
Estrogen receptor beta [9]
  IC50: 103 µM (not active)
[13]
  EC50: 20.6 µM (active)

## Cc1c(-c2ccccn2)c(=O)[nH]n1-c1ccc(F)cc1
[1]
  EC50: > 67.5 µM (inactive)
cells
  EC50: > 67.5 µM (inactive)

## Cc1ccc(N=C2Nc3ccccc3CS2)cc1
[1]
  EC50: > 67.5 µM (inactive)

## Cc1ccc(NC2=Nc3ccccc3CS2)cc1
cells
  EC50: > 67.5 µM (inactive)

## O=C(c1ccc([N+](=O)[O-])cc1)n1nc(-c2ccccc2)nc1NCc1ccc(F)cc1
Prothrombin
  IC50: 0.464 µM (active)

## OCCNc1ncnc2c1c(-c1ccccc1)c(-c1ccccc1)n2Cc1ccco1
[8]
  IC50: > 100 µM (not active)

## CCOC(=O)c1cnc(SCC(=O)Nc2sc(C)c(C)c2C#N)nc1N
[2]
  IC50: 18.7 µM (active)

## CC(C)C(OC(=O)c1cccs1)C(=O)NCc1ccco1 (stereo unspecified)
[8]
  IC50: > 100 µM (not active)

## O=c1c2cc(N3CCOCC3)ccc2[nH]c(=S)n1Cc1ccco1
Estrogen receptor beta [10]
  IC50: > 50 µM (not active)
Estrogen receptor beta [9]
  IC50: 6.02 µM (not active)

## CC(C)C[C@H](NC(=O)OCC1c2ccccc2-c2ccccc21)C(=O)O
[14]
  EC50: > 67.5 µM (inactive)

## CC1CCc2[nH]nc(C(=O)O)c2C1 (stereo unspecified)
Prothrombin
  IC50: > 50 µM (not active)

## O=C(NCc1ccco1)c1cc2nc(-c3ccc4c(c3)OCO4)cc(C(F)(F)F)n2n1
[15]
  EC50: > 32 µM (inactive)
[2]
  IC50: 20.4 µM (active)

## COc1ccc(N2C(=O)CSC2c2cccc(OC)c2OC)cc1 (stereo unspecified)
Prothrombin
  IC50: > 50 µM (not active)

## C[C@@H]1CN([C@@H](C)CO)C(=O)c2cc(NC(=O)Nc3ccc(F)cc3)ccc2O[C@@H](C)CCCCO[C@H]1CN(C)Cc1ccc(C(F)(F)F)cc1
Paired box protein Pax-8
  AC50: 6.74 µM (active)
[16]
  AC50: 16.3 µM (active)
[17]
  AC50: 1.84 µM (active)
[18]
  AC50: 51.7 µM (active)

## C[C@H](CO)N1C[C@H](C)[C@H](CN(C)S(=O)(=O)c2ccc(Cl)cc2)OCCCC[C@H](C)Oc2ccc(NC(=O)Nc3ccc(C(F)(F)F)cc3)cc2C1=O
Paired box protein Pax-8
  AC50: 4.52 µM (active)
[16]
  AC50: 60 µM (active)
[17]
  AC50: 34.6 µM (active)

## COc1ccc(/C=c2/sc3n(c2=O)C(c2ccccc2OC)C2=C(N=3)c3ccccc3CC2)cc1O (stereo unspecified)
[19]
  EC50: 13.9 µM (active)
[20]
  EC50: 0.403 µM (active)
[21]
  EC50: 0.112 µM (active)
Paired box protein Pax-8
  AC50: 2.28 µM (active)
[17]
  AC50: 52 µM (active)
[22]
  IC50: > 80 µM (inactive)
